Source: the supplement of paper PMC10307832

Key:
Assay in all cases: relative viability (nuclei count vs DMSO), 5 days (fraction); higher = more cells survive
SK-MES-1 = system: SK-MES-1
Method in brief: (§1)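 Five library-drug doses in √10 steps were combined with a fixed anchor-drug dose, or a single drug was given alone, by pin tool to lung cancer cell lines in 1536-well plates the day after seeding. Nuclei were stained and counted after 5 days. Relative viability is the nuclei count in treated wells over that in vehicle wells, taken as the median of duplicate plates.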

EMC-BAC-2 = system: EMC-BAC-2
Method in brief: as §1

RERF-LC-KJ = system: RERF-LC-KJ
Method in brief: as §1

NCI-H2087 = system: NCI-H2087
Method in brief: as §1

HARA = system: HARA
Method in brief: as §1

NCI-H2126 = system: NCI-H2126
Method in brief: as §1

LXF-289 = system: LXF-289
Method in brief: as §1

UMC-11 = system: UMC-11
Method in brief: as §1

HCC-78 = system: HCC-78
Method in brief: as §1

HOP-62 = system: HOP-62
Method in brief: as §1

SW 900 = system: SW 900
Method in brief: as §1

LOU-NH91 = system: LOU-NH91
Method in brief: as §1

NCI-H1993 = system: NCI-H1993
Method in brief: as §1

NCI-H650 = system: NCI-H650
Method in brief: as §1

LU99A = system: LU99A
Method in brief: as §1

BEN = system: BEN
Method in brief: as §1

NCI-H1395 = system: NCI-H1395
Method in brief: as §1

NCI-H1563 = system: NCI-H1563
Method in brief: as §1

NCI-H2170 = system: NCI-H2170
Method in brief: as §1

201T = system: 201T
Method in brief: as §1

LC-2-ad = system: LC-2-ad
Method in brief: as §1

H3255 = system: H3255
Method in brief: as §1

COR-L 105 = system: COR-L 105
Method in brief: as §1

Cc1csc(=NC2CCCCC2)n1/N=C/c1ccc(O)c(O)c1O [MIM1] + Cc1nc(Nc2ncc(C(=O)Nc3c(C)cccc3Cl)s2)cc(N2CCN(CCO)CC2)n1 [Dasatinib] (partner 0.075 µM)
relative viability (SK-MES-1; first compound 0.2 µM): 0.369 | relative viability (SK-MES-1; first compound 0.6325 µM): 0.371 | relative viability (SK-MES-1; first compound 2 µM): 0.259 | relative viability (SK-MES-1; first compound 6.325 µM): 0.27 | relative viability (SK-MES-1; first compound 20 µM): 0.367 | relative viability (EMC-BAC-2; first compound 0.2 µM): 0.218 | relative viability (EMC-BAC-2; first compound 0.6325 µM): 0.302 | relative viability (EMC-BAC-2; first compound 2 µM): 0.317 | relative viability (EMC-BAC-2; first compound 6.325 µM): 0.31 | relative viability (EMC-BAC-2; first compound 20 µM): 0.179 | relative viability (RERF-LC-KJ; first compound 0.2 µM): 0.632 | relative viability (RERF-LC-KJ; first compound 0.6325 µM): 0.748 | relative viability (RERF-LC-KJ; first compound 2 µM): 0.551 | relative viability (RERF-LC-KJ; first compound 6.325 µM): 0.361 | relative viability (RERF-LC-KJ; first compound 20 µM): 0.228 | relative viability (NCI-H2087; first compound 0.2 µM): 0.884 | relative viability (NCI-H2087; first compound 0.6325 µM): 0.843 | relative viability (NCI-H2087; first compound 2 µM): 1.02 | relative viability (NCI-H2087; first compound 6.325 µM): 0.685 | relative viability (NCI-H2087; first compound 20 µM): 0.625 | relative viability (HARA; first compound 0.2 µM): 0.216 | relative viability (HARA; first compound 2 µM): 0.228 | relative viability (HARA; first compound 6.325 µM): 0.24 | relative viability (HARA; first compound 20 µM): 0.181 | relative viability (NCI-H2126; first compound 0.2 µM): 0.679 | relative viability (NCI-H2126; first compound 0.6325 µM): 0.582 | relative viability (NCI-H2126; first compound 2 µM): 0.583 | relative viability (NCI-H2126; first compound 6.325 µM): 0.471 | relative viability (NCI-H2126; first compound 20 µM): 0.287 | relative viability (LXF-289; first compound 0.2 µM): 0.224 | relative viability (LXF-289; first compound 0.6325 µM): 0.174 | relative viability (LXF-289; first compound 2 µM): 0.194 | relative viability (LXF-289; first compound 6.325 µM): 0.275 | relative viability (LXF-289; first compound 20 µM): 0.177 | relative viability (UMC-11; first compound 0.2 µM): 0.474 | relative viability (UMC-11; first compound 2 µM): 0.532 | relative viability (UMC-11; first compound 6.325 µM): 0.402 | relative viability (UMC-11; first compound 20 µM): 0.235 | relative viability (HCC-78; first compound 0.2 µM): 0.467 | relative viability (HCC-78; first compound 0.6325 µM): 0.287 | relative viability (HCC-78; first compound 2 µM): 0.435 | relative viability (HCC-78; first compound 6.325 µM): 0.344 | relative viability (HCC-78; first compound 20 µM): 0.487 | relative viability (HOP-62; first compound 0.2 µM): 0.579 | relative viability (HOP-62; first compound 0.6325 µM): 0.696 | relative viability (HOP-62; first compound 2 µM): 0.677 | relative viability (HOP-62; first compound 6.325 µM): 0.629 | relative viability (HOP-62; first compound 20 µM): 0.16 | relative viability (SW 900; first compound 0.2 µM): 0.619 | relative viability (SW 900; first compound 0.6325 µM): 0.804 | relative viability (SW 900; first compound 2 µM): 0.508 | relative viability (SW 900; first compound 6.325 µM): 0.449 | relative viability (SW 900; first compound 20 µM): 0.23 | relative viability (LOU-NH91; first compound 0.2 µM): 0.502 | relative viability (LOU-NH91; first compound 0.6325 µM): 0.529 | relative viability (LOU-NH91; first compound 2 µM): 0.537 | relative viability (LOU-NH91; first compound 6.325 µM): 0.497 | relative viability (LOU-NH91; first compound 20 µM): 0.365 | relative viability (NCI-H1993; first compound 0.2 µM): 0.349 | relative viability (NCI-H1993; first compound 0.6325 µM): 0.57 | relative viability (NCI-H1993; first compound 2 µM): 0.545 | relative viability (NCI-H1993; first compound 6.325 µM): 0.484 | relative viability (NCI-H1993; first compound 20 µM): 0.411 | relative viability (NCI-H650; first compound 0.2 µM): 0.496 | relative viability (NCI-H650; first compound 0.6325 µM): 0.435 | relative viability (NCI-H650; first compound 2 µM): 0.459 | relative viability (NCI-H650; first compound 6.325 µM): 0.416 | relative viability (NCI-H650; first compound 20 µM): 0.301 | relative viability (LU99A; first compound 0.2 µM): 0.752 | relative viability (LU99A; first compound 0.6325 µM): 0.54 | relative viability (LU99A; first compound 2 µM): 0.48 | relative viability (LU99A; first compound 6.325 µM): 0.37 | relative viability (LU99A; first compound 20 µM): 0.21 | relative viability (BEN; first compound 0.2 µM): 0.304 | relative viability (BEN; first compound 0.6325 µM): 0.308 | relative viability (BEN; first compound 2 µM): 0.348 | relative viability (BEN; first compound 6.325 µM): 0.378 | relative viability (BEN; first compound 20 µM): 0.158 | relative viability (NCI-H1395; first compound 0.2 µM): 0.504 | relative viability (NCI-H1395; first compound 0.6325 µM): 0.465 | relative viability (NCI-H1395; first compound 2 µM): 0.381 | relative viability (NCI-H1395; first compound 6.325 µM): 0.443 | relative viability (NCI-H1395; first compound 20 µM): 0.303 | relative viability (NCI-H1563; first compound 0.2 µM): 0.538 | relative viability (NCI-H1563; first compound 0.6325 µM): 0.508 | relative viability (NCI-H1563; first compound 2 µM): 0.43 | relative viability (NCI-H1563; first compound 6.325 µM): 0.524 | relative viability (NCI-H1563; first compound 20 µM): 0.488 | relative viability (NCI-H2170; first compound 0.2 µM): 0.569 | relative viability (NCI-H2170; first compound 0.6325 µM): 0.498 | relative viability (NCI-H2170; first compound 2 µM): 0.73 | relative viability (NCI-H2170; first compound 6.325 µM): 0.382 | relative viability (NCI-H2170; first compound 20 µM): 0.172 | relative viability (201T; first compound 0.2 µM): 0.612 | relative viability (201T; first compound 0.6325 µM): 0.614 | relative viability (201T; first compound 2 µM): 0.598 | relative viability (201T; first compound 6.325 µM): 0.422 | relative viability (201T; first compound 20 µM): 0.445 | relative viability (LC-2-ad; first compound 0.2 µM): 0.834 | relative viability (LC-2-ad; first compound 0.6325 µM): 0.413 | relative viability (LC-2-ad; first compound 2 µM): 0.527 | relative viability (LC-2-ad; first compound 6.325 µM): 0.411 | relative viability (LC-2-ad; first compound 20 µM): 0.142 | relative viability (H3255; first compound 0.2 µM): 0.339 | relative viability (H3255; first compound 0.6325 µM): 0.343 | relative viability (H3255; first compound 2 µM): 0.334 | relative viability (H3255; first compound 6.325 µM): 0.344 | relative viability (H3255; first compound 20 µM): 0.255 | relative viability (COR-L 105; first compound 0.2 µM): 0.356 | relative viability (COR-L 105; first compound 0.6325 µM): 0.424 | relative viability (COR-L 105; first compound 2 µM): 0.339 | relative viability (COR-L 105; first compound 6.325 µM): 0.29 | relative viability (COR-L 105; first compound 20 µM): 0.292
